Our source for the IC50 values is ChEMBL document CHEMBL1129758, “Rapid synthesis of novel dipeptide inhibitors of human collagenase and gelatinase using solid phase chemistry” (Bioorg Med Chem Lett, 1996).

pIC50: −log10 of the molar value. Structures can show the parent of a compound that is named as a salt. *1 amine or outer side, *2 acyl side, *3 side chain or, on linkers, in order; H or OH if unused. Where a SMILES comes first, the peptide text is derived from it. [ ]: non-standard residue; d: D form. The star is where a group is joined. Hydrocinnamoyl = O=C(CCc1ccccc1)*; 3Pal = N[C@@H](Cc1cccnc1)C(=O)O; 2Thi = N[C@@H](Cc1cccs1)C(=O)O; CO = O=C([*:1])[*:2]; Tfa = O=C(C(F)(F)F)*; NHPh = c1ccc(N*)cc1

One experiment addresses T1, Interstitial collagenase (Homo sapiens, UniProt P03956).
T1 sequence (P03956 whole entry): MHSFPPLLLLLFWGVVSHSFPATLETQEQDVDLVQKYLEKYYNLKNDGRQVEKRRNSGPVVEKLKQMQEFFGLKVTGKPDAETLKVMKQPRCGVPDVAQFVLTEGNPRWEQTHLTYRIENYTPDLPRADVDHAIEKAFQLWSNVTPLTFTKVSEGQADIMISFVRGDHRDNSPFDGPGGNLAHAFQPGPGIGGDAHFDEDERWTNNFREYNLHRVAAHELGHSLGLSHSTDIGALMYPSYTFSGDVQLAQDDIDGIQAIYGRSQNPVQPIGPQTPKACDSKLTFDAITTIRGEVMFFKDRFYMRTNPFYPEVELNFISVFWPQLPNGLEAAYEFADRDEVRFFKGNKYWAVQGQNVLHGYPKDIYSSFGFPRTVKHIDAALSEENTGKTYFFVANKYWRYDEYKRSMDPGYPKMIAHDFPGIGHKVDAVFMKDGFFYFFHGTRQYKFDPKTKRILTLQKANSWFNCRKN
The experiment is described as follows: Inhibitory activity against human fibroblast collagenase (MMP-1).

In experiment [1] the target is Matrix metalloproteinase-9 (Homo sapiens, UniProt P14780). Kind of experiment: Compound was tested for its inhibitory activity against 92 kD gelatinase (MMP-9).
Sequence of Matrix metalloproteinase-9 (P14780 whole entry): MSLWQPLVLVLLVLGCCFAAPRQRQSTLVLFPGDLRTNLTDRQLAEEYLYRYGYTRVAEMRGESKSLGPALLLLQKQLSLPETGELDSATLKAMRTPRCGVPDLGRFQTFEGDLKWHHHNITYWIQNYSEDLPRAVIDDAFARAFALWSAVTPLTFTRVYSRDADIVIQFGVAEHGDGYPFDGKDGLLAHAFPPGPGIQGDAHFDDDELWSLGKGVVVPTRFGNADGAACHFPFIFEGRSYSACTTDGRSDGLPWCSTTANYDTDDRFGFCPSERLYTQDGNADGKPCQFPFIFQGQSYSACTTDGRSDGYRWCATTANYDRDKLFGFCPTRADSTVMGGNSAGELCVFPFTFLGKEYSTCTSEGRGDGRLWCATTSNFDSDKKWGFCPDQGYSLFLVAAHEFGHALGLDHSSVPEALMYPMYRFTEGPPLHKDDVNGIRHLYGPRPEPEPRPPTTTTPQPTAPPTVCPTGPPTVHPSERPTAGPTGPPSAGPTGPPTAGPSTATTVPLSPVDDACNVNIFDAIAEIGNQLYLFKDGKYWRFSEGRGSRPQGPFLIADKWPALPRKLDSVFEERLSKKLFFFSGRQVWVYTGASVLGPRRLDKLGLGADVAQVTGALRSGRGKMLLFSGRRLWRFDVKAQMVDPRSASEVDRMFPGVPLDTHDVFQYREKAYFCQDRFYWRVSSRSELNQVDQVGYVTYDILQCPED

As to `NC(=O)[C@H](Cc1ccccc1)NC(=O)[C@H](CS)NC(=O)c1ccc2c(c1)OCO2`, the pIC50 (usually −log10 of the IC50, conventionally taken in molar units) is 6.67 on Interstitial collagenase and 7.72 in experiment [1].

Take `NC(=O)[C@H](Cc1cccnc1)NC(=O)[C@H](CC(=O)O)NC(=O)c1ccc2[nH]nnc2c1`: at Interstitial collagenase, the pIC50 was 6.34.

On to `NC(=O)[C@H](Cc1ccccc1)NC(=O)[C@H](CS)NC(=O)c1ccncc1`, for which the pIC50 on Interstitial collagenase is 7.03; in experiment [1], 7.39.

Consider `NC(=O)[C@H](Cc1cccnc1)NC(=O)[C@H](CS)NC(=O)c1ccc2[nH]nnc2c1`, for which the negative-log IC50 (pIC50) against Interstitial collagenase was 7.92; in experiment [1], 7.38.

With `NC(=O)[C@H](Cc1ccccc1)NC(=O)[C@H](CS)NC(=O)c1ccoc1`, the figures for the negative logarithm of the IC50 (pIC50) (against Interstitial collagenase; in experiment [1]) were 6.77 and 7.08, respectively.

Regarding `NC(=O)[C@H](Cc1ccccc1)NC(=O)[C@H](CS)NC(=O)COc1ccccc1`, the pIC50 on Interstitial collagenase was 6.22; in experiment [1], 7.47.

As for `NC(=O)[C@H](Cc1ccccc1)NC(=O)[C@H](CS)NC(=O)c1cn[nH]c1`, the pIC50 is 7.59 against Interstitial collagenase and 7.15 in experiment [1].

For `NC(=O)[C@H](Cc1ccccc1)NC(=O)[C@H](CS)NC(=O)c1cccs1`, the negative logarithm of the IC50 (pIC50) is 6.98 on Interstitial collagenase and 7.31 in experiment [1].

For the molecule `NC(=O)[C@H](Cc1ccccc1)NC(=O)[C@H](CS)NC(=O)c1ccc(-c2ccccc2)cc1`, the negative logarithm of the IC50 (pIC50) on Interstitial collagenase was 6.37; in experiment [1], 7.68.

In the case of `NC(=O)[C@H](Cc1ccccc1)NC(=O)[C@H](CS)NC(=O)c1ccsc1`, the results for the pIC50 (against Interstitial collagenase; in experiment [1]) were 6.89 and 7.09, respectively.

For `NC(=O)[C@H](Cc1ccccc1)NC(=O)[C@H](CS)NC(=O)c1ccc(=O)[nH]c1`, the pIC50 was 7.08 against Interstitial collagenase and 7.39 in experiment [1].

As to `NC(=O)[C@H](Cc1ccccc1)NC(=O)[C@H](CS)NC(=O)c1ccc2[nH]nnc2c1`, the figures for the pIC50 (on Interstitial collagenase; in experiment [1]) were 8.10 and 7.62, respectively.

With `NC(=O)[C@H](Cc1cccnc1)NC(=O)[C@H](CS)NC(=O)c1cn[nH]c1`, the figures for the pIC50 (on Interstitial collagenase; in experiment [1]) were 7.59 and 7.15, respectively.

On to `NC(=O)[C@H](Cc1ccccc1)NC(=O)[C@H](CS)NC(=O)c1ccc(-n2cccc2)nc1`, for which the pIC50 against Interstitial collagenase is 6.60; in experiment [1], 7.82.

In the case of `CN(C)c1ccc(C(=O)N[C@@H](CS)C(=O)N[C@@H](Cc2ccccc2)C(N)=O)cc1`, the values for the pIC50 (on Interstitial collagenase; in experiment [1]) were 6.83 and 7.10, respectively.

With `NC(=O)[C@H](Cc1cccs1)NC(=O)[C@H](CS)NC(=O)c1ccc2nn[nH]c2c1`, the pIC50 against Interstitial collagenase is 7.47; in experiment [1], 6.99.

Take `CC(=O)N[C@@H](CS)C(=O)N[C@@H](Cc1ccccc1)C(N)=O` (Ac-Cys-Phe-NH2): the pIC50 at Interstitial collagenase is under 4.00.

For `CC(=O)N[C@@H](CS)C(=O)N[C@@H](Cc1c[nH]c2ccccc12)C(N)=O` (Ac-Cys-Trp-NH2), the pIC50 at Interstitial collagenase is 5.30.

Consider `CC(=O)N[C@@H](CS)C(=O)N[C@H](C(N)=O)C(C)C` (Ac-Cys-Val-NH2), for which, on Interstitial collagenase, the negative-log IC50 (pIC50) is 5.15.

On Interstitial collagenase, `CC(=O)N[C@@H](CS)C(=O)N[C@@H](Cc1cccs1)C(N)=O` (Ac-Cys-[2Thi]-NH2) had a pIC50 of 5.40.

On Interstitial collagenase, `CC(=O)N[C@@H](CS)C(=O)N[C@@H](Cc1cccnc1)C(N)=O` (Ac-Cys-[3Pal]-NH2) had a negative logarithm of the IC50 (pIC50) of 5.40.

Turning to `NC(=O)[C@H](Cc1ccccc1)NC(=O)[C@H](CS)NC(=O)CCc1ccccc1` (Hydrocinnamoyl-Cys-Phe-NH2), the pIC50 on Interstitial collagenase was 5.46; in experiment [1], 7.42.

For the molecule `NC(=O)[C@H](Cc1ccccc1)NC(=O)[C@H](CS)NC(=O)C(F)(F)F` (Tfa-Cys-Phe-NH2), the negative-log IC50 (pIC50) was 7.40 on Interstitial collagenase and under 6.00 in experiment [1].

`COC(=O)[C@H](Cc1ccccc1)NC(=O)[C@H](CS)NC(=O)C(F)(F)F` (Tfa-Cys-Phe-OMe): the values for the pIC50 (against Interstitial collagenase; in experiment [1]) were 7.20 and under 6.00, respectively.

As for `NC(=O)[C@H](Cc1ccccc1)NC(=O)[C@H](CS)NC(=O)Nc1ccccc1` ({NHPh-CO}-Cys-Phe-NH2), the pIC50 against Interstitial collagenase was 7.40; in experiment [1], 7.96.
